Columns and labels:
[1] = test system: Mus musculus; experiment: Effective dose to inhibit convulsions induced by NMDA in mice, when administered intravenous route.; format: functional
[2] = target: Glutamate receptor ionotropic, NMDA 1 (Rattus norvegicus, UniProt P35439); experiment: Inhibition of [3H]glycine to glycine binding site, associated with the N-methyl-D-aspartate glutamate receptor 1 in crude synaptic membranes prepared from adult rat cerebral cortex.; format: cell membranes
[3] = target: Glutamate receptor ionotropic, NMDA 1 (Rattus norvegicus) (UniProt P35439); experiment: Antagonistic activity by using [3H]TCP radioligand (non competitive inhibition) at strychnine-insensitive N-methyl-D-aspartate glutamate receptor 1
[4] = test system: Mus musculus; experiment: Effective dose to inhibit convulsions induced by NMDA in mice, when administered peroral route.; format: functional; conditions: po

SMILES | Ki [2] | other results
O=c1[nH]c2cc(Cl)ccc2c(O)c1-c1cccc(Oc2ccccc2)c1 | 1 nM | ED50 [1]: 0.78 mg/kg
O=C(O)c1cc2c(Cl)cc(Cl)cc2[nH]1 | 2000 nM | 
O=C(/C=C/c1c(C(=O)O)[nH]c2cc(Cl)cc(Cl)c12)Nc1ccccc1[N+](=O)[O-] | 25.1 nM | 
CC(C)(C)OC(=O)/C=C/c1c(C(=O)O)[nH]c2cc(Cl)cc(Cl)c12 | 501 nM | 
O=C(/C=C/c1c(C(=O)[O-])[nH]c2cc(Cl)cc(Cl)c12)Nc1ccccc1.[Na+] [GAVESTINEL SODIUM] | 3.16 nM | ED50 [1]: 0.06 mg/kg; pA2 [3]: 8.1; ED50 [4]: 6 mg/kg
O=C(/C=C/c1c(C(=O)O)[nH]c2cc(Cl)cc(Cl)c12)Nc1ccc([N+](=O)[O-])cc1 | 100 nM | 
O=C(Nc1ccccc1)N[C@H]1C[C@H](C(=O)O)Nc2cc(Cl)cc(Cl)c21 | 6.31 nM | ED50 [1]: 0.21 mg/kg
O=C(O)CCc1c(C(=O)[O-])[nH]c2cc(Cl)cc(Cl)c12.[Na+] | 39.8 nM | ED50 [1]: > 10 mg/kg
Nc1ccc(NC(=O)/C=C/c2c(C(=O)O)[nH]c3cc(Cl)cc(Cl)c23)cc1 | 1.26 nM | 
Nc1cccc(NC(=O)/C=C/c2c(C(=O)O)[nH]c3cc(Cl)cc(Cl)c23)c1 | 5.01 nM | 
CN(C)c1ccc(NC(=O)/C=C/c2c(C(=O)O)[nH]c3cc(Cl)cc(Cl)c23)cc1 | 12.6 nM | 
O=C(/C=C/c1c(C(=O)O)[nH]c2cc(Cl)cc(Cl)c12)Nc1ccc(Cl)c([N+](=O)[O-])c1 | 126 nM | 
O=C(/C=C/c1c(C(=O)[O-])[nH]c2cc(Cl)cc(Cl)c12)NCc1ccccc1.[Na+] | 126 nM | ED50 [1]: > 30 mg/kg; ED50 [4]: > 200 mg/kg
O=C(/C=C/c1c(C(=O)O)[nH]c2cc(Cl)cc(Cl)c12)Nc1ccc(C(F)(F)F)cc1 | 158 nM | 
COc1ccc(NC(=O)/C=C/c2c(C(=O)O)[nH]c3cc(Cl)cc(Cl)c23)c(C)c1 | 20 nM | 

More lines, in order of falling Ki [2], values ahead:

Ki [2] | SMILES | other results
794 nM | O=C(O)c1[nH]c2cc(Cl)cc(Cl)c2c1/C=C/S(=O)(=O)Nc1ccccc1 | 
200 nM | O=C(/C=C/c1c(C(=O)O)[nH]c2cc(Cl)cc(Cl)c12)Nc1ccc(Nc2ccccc2)cc1 | 
100 nM | CCN(CC)c1ccc(NC(=O)/C=C/c2c(C(=O)O)[nH]c3cc(Cl)cc(Cl)c23)cc1 | 
63.1 nM | O=C(/C=C/c1c(C(=O)O)[nH]c2cc(Cl)cc(Cl)c12)Nc1ccc(C(=O)O)cc1 | 
50.1 nM | CC(C)c1ccccc1NC(=O)/C=C/c1c(C(=O)O)[nH]c2cc(Cl)cc(Cl)c12 | 
31.6 nM | O=C(/C=C/c1c(C(=O)O)[nH]c2cc(Cl)cc(Cl)c12)Nc1ccc(F)cc1[N+](=O)[O-] | 
25.1 nM | O=C(CCc1c(C(=O)[O-])[nH]c2cc(Cl)cc(Cl)c12)Nc1ccccc1.[Na+] | ED50 [1]: 3.7 mg/kg
20 nM | O=C(O)/C=C/c1c(C(=O)[O-])[nH]c2cc(Cl)cc(Cl)c12.[Na+] | ED50 [1]: 17.2 mg/kg; ED50 [4]: > 200 mg/kg
10 nM | O=C(/C=C/c1c(C(=O)O)[nH]c2cc(Cl)cc(Cl)c12)Nc1cccc([N+](=O)[O-])c1O | 
7.94 nM | O=c1[nH]c2cc(Cl)c(Cl)c([N+](=O)[O-])c2[nH]c1=O [LICOSTINEL] | ED50 [1]: 0.21 mg/kg
6.31 nM | O=C(/C=C/c1c(C(=O)O)[nH]c2cc(Cl)cc(Cl)c12)Nc1ccc(F)cc1 | 
5.01 nM | O=C(/C=C/c1c(C(=O)O)[nH]c2cc(Cl)cc(Cl)c12)Nc1cccc([N+](=O)[O-])c1F | 
3.98 nM | O=C(/C=C/c1c(C(=O)O)[nH]c2cc(Cl)cc(Cl)c12)Nc1cccc(O)c1 | 
3.16 nM | Nc1ccccc1NC(=O)/C=C/c1c(C(=O)O)[nH]c2cc(Cl)cc(Cl)c12 | 
2 nM | O=C(/C=C/c1c(C(=O)O)[nH]c2cc(Cl)cc(Cl)c12)Nc1ccc(O)cc1 | 
1.58 nM | NC(=O)Nc1ccc(NC(=O)/C=C/c2c(C(=O)O)[nH]c3cc(Cl)cc(Cl)c23)cc1 | 

From ChEMBL document CHEMBL1129966, “Substituted indole-2-carboxylates as in vivo potent antagonists acting as the strychnine-insensitive glycine binding site” (J Med Chem, 1997)
